row,melting point,SMILES
1,138 to 142 °C,Cc1ccc(CNC(=S)N2CCc3c([nH]c4ccccc34)C2c2ccc3c(c2)OCO3)cc1C (stereo unspecified)
2,168 to 169 °C,C(=C\c1nc2ccccc2n1-c1ccncc1)/c1ccccc1
3,130 to 132 °C,Cc1oc(-c2ccccc2)nc1COc1ccc(CON=C(CCCCC(=O)NS(C)(=O)=O)c2ccccc2)cc1
4,235 °C,O[C@H]1c2cc3ccccc3cc2[C@H](O)c2cc3ccccc3cc21
5,123 to 125 °C,COc1cccc(-c2nc(-c3ccccc3C)n(C(=O)Nc3ccccc3)n2)c1
6,142 to 145 °C,CCCc1nc2c(N)nc3cc(OCCOCc4ccccc4)ccc3c2s1
7,142 to 143 °C,COc1ccc(C2CNC(=O)NC2)cc1OCCCCc1ccccc1
8,194 to 197 °C,CN1c2ccccc2-c2nccn2-c2ccccc21
9,146 to 152 °C,Cc1c(OCC(=O)O)ccc(-c2noc3ccccc23)c1C
10,115 to 116 °C,Cc1c2c(c(Cc3ccc(C(C)C)cc3)c(C)c1NCc1ccccc1)OCC2
11,141 to 142 °C,Cc1oc(-c2ccccc2)nc1COc1ccc(COc2ccc3ccccc3c2C=O)cc1
12,155 to 159 °C,CCCCc1oc2ccccc2c1C(=O)Nc1ccc2c(Br)c(OCC#N)ccc2c1
13,117 to 118 °C,CC1CCN(c2nccc(Oc3ccc(NC(=O)c4cc(F)cc(N5CCOCC5)c4)c4ccccc34)n2)CC1
14,161 °C,COc1cc2[nH]c(C(=O)OCc3ccccc3)cc2c(C)c1C
15,192 to 194 °C,O=C(Nc1ccc2cc(CN3CCCC3)cnc2c1)c1ccc(-c2ccccc2)cc1
16,112 to 115 °C,Cc1c(SCc2ccc(-c3ccccc3)cc2)cnn(C(C)(C)C)c1=O
17,45 to 47.5 °C,c1ccc(COc2ccc(C3CO3)nc2)cc1 (stereo unspecified)
18,211 to 212 °C,Clc1ccc2c(c1)C(c1ccccc1Cl)NCc1c[nH]cc1-2 (stereo unspecified)
19,167 °C,CCc1noc(-c2ccccc2)c1-c1ccc(S(N)(=O)=O)cc1
20,219 to 220 °C,Cc1cc(-c2nc3cccnn3c2-c2ccnc(NC(=O)c3ccncc3)c2)ccc1F
21,174 to 176 °C,Cc1ccsc1-c1nc2cc([N+](=O)[O-])ccc2o1
22,195 to 198 °C,Cc1cc2cc(NS(C)(=O)=O)cc(-c3cc(Cl)nc4ccccc34)c2n1CC(=O)O
23,119 to 120 °C,CCCc1cc(Cl)c2oc(C(=O)OCc3ccccc3)c(C)c2c1O
24,146 to 148 °C,O=C(Nc1nnn(CC(F)(F)F)n1)C(c1ccccc1)c1ccccc1
25,152 to 154 °C,Cc1oc(-c2ccccc2)nc1C(O)c1cc2cc(Br)ccc2o1 (stereo unspecified)
26,156 to 159 °C,CC(C)Oc1ccc(-c2nn(Cc3oc4cccc(F)c4c(=O)c3-c3cccc(F)c3)c3ncnc(N)c23)cc1F
27,166 to 168 °C,Nc1ccc2nc(-c3ccc(Cl)cc3)sc2c1
28,237 to 238 °C,O=C(Nc1ccc([N+](=O)[O-])cc1O)NC(c1ccccc1)c1ccccc1
29,123 to 125 °C,CN(C)CCN/C(=C1/Sc2ccccc2C1=O)c1ccccc1

# Further lines, the compound ahead of its results:
row,SMILES,melting point
1,NC(=O)N(O)Cc1ccc(C(O)C#Cc2ccsc2)cc1 (stereo unspecified),117 to 119 °C
2,CS(=O)(=O)N1CCC(Nc2nc(Nc3cccc(C(F)(F)F)c3)nc(OCc3ccccn3)n2)CC1,160 to 162 °C
3,COc1ccc(COc2cccnc2NC(=S)Nc2ccc(Cl)cc2)c(F)c1,138 to 140 °C
4,COc1ccc2cc(N)cc(C)c2n1,115 to 117 °C
5,COc1cc(-c2csc(C#N)n2)cc(Cl)c1OC,147 to 149 °C
6,C=Cc1ccc(OC(=O)C(Cl)(Cl)Cl)cc1,37 to 39 °C
7,CC(C)N1C(=O)[C@@H](CCCC(=O)O)O[C@H](c2ccccc2Cl)c2cc(Cl)ccc21 (relative stereo),158 to 160 °C
8,C=C(C)C(=O)OCCCCc1cc(-c2ccc(OC(=O)C(=C)C)cc2)ccc1OC(=O)C(=C)C,76 °C
9,COCCOC(=O)C1=C(C)NC(C)=C(C(=O)OC(C)C)C1c1ccsc1Cl (stereo unspecified),123 to 124 °C
10,Cc1cc(OC(F)F)nc(NC(=O)NS(=O)(=O)c2ccccc2OC(F)F)n1,163 to 164 °C
11,CSc1ccc(C2=C(c3ccc(F)cc3C)CCC2)cc1,67 to 68 °C
12,CCOC(=O)c1c(Oc2ccc(Cl)cc2[N+](=O)[O-])c2ccccc2n1C,133 to 134 °C
13,CC(C)N1CCC(COc2ccc(-c3ccc(=O)[nH]n3)cn2)CC1,188 to 191 °C
14,COc1ccc(C(=O)Nc2cnccc2Cl)cc1OC1CCCC1,130 to 132 °C
15,C=CCn1c(=O)[nH]c2ccccc2c1=N,223 to 224 °C
16,Fc1ccc(-c2ccn(C3CCNC3)c2-c2ccncc2)cc1 (stereo unspecified),145 to 147 °C
17,COC1(c2ccc(F)cc2)CCC(=NO)CC1 (stereo unspecified),86 to 89 °C
18,COC(=O)C[C@H]1C[C@@H](CCc2c(-c3ccc(F)cc3)c(-c3ccc(F)cc3)cn2C(C)C)OC(C)(C)O1,55 to 57 °C
19,COc1cc2c(cc1OC)[C@@H]1C[C@H](NC(=O)OC(C)(C)C)[C@@H](N3C[C@H](CF)CC3=O)CN1CC2,> 300 °C
20,Nc1nc2ccc(NC(=O)[C@@H]3CCCN3C(=O)[C@@H](Cc3ccccc3)NS(=O)(=O)Cc3ccccc3)cc2s1,130 to 133 °C
21,OCC1OC(n2cnc3c(NN4CCCC4)nc(I)nc32)C(O)C1O (stereo unspecified),216 to 217 °C
22,Cc1nccn1CCCNC(=O)c1cc2ccccc2[nH]1,235 to 237 °C
23,Nc1cc(OCCOCP(=O)(O)O)nc(N)n1,279 °C

row,SMILES,melting point
1,Cc1c(CC(=O)O)c2cc3c(cc2n1C(=O)c1ccc(Cl)cc1)OCO3,190 to 191 °C
2,CCc1nc2c(N)nc3ccccc3c2n1CCOCCNC(=O)N1CCOCC1,182 to 184 °C
3,CC(C)c1cc(CCC(=O)O)cc(C(C)C)c1O,106 °C
4,O=[N+]([O-])c1ccccc1NCC12CC3CC(CC(C3)C1)C2,106 to 109 °C
5,CN(C(=O)C1=NN(c2ccc(Cl)cc2)C(c2ccc(Cl)cc2)C1)c1ccc(C(F)(F)F)cc1 (stereo unspecified),181 to 183 °C
6,CCOC(=O)c1cn(C2CC2)c2c(C#N)c(Cl)c(F)cc2c1=O,162 to 165 °C
7,COc1ccc(CCc2ccc(NC(=O)C(=O)c3cc(Cl)ccc3O)cc2)cc1OC,128 to 130 °C
8,CS(=O)(=O)Nn1c(=O)[nH]c2cc(C(F)(F)F)c(-c3cccc(C#N)c3)cc2c1=O,291 to 292 °C
9,O=[N+]([O-])c1cnn2c1NCCC2,251 to 252 °C
10,CCC(C)c1ccc(N(Cc2ccc(C(C)(C)C)cc2)C(=N)N(C)c2ccccc2)cc1 (stereo unspecified),80 to 82 °C
11,CCCOc1ccccc1-c1nc2cc3ncn(CC)c3cc2c(=O)[nH]1,212 to 214 °C
12,O=C1c2ccccc2-n2cnc(Br)c2[C@@H]2CCCN12,225 to 226 °C
13,c1ccc2c(c1)Cn1ccnc1CN2,164 to 170 °C
14,O=C(c1ccc(F)cc1)C1CCN(CCn2c(=O)[nH]c3ncccc3c2=O)CC1,60 °C
15,NCCNC(=O)COc1ccc(C2=NNC(=O)CC2)cc1Cl,168 to 170 °C
16,CC(=O)N1CCN(Cc2sccc2S(=O)(=O)N(C)c2cccc3cc(-c4nccs4)[nH]c23)CC1,242 °C
17,COc1cccc2c1N(CCCO)Cn1cc(CO)cc1-2,116 to 118 °C
18,CN(C)C(=O)Nc1cc(C(C)(C)C)[nH]n1,220 to 222 °C
19,CCCCOC(=O)c1ccc2ccc(C(=O)NCc3ccc(O)c(O)c3)nc2c1OC(=O)C(C)(C)C,189 °C
20,CCCc1c(OCCCOc2ccccc2)ccc2c1OC(CCC(=O)O)(CCC(=O)O)CC2,130 to 132 °C
21,CCCn1c(OCC2CC2(Cl)Cl)nc2sccc2c1=O (stereo unspecified),64 to 66 °C
22,Cc1ccc(S(=O)(=O)C2SC(=O)N(C(c3ccccc3)(c3ccccc3)c3ccccc3)C2=O)cc1 (stereo unspecified),105 to 110 °C
23,N#CCCOc1ccc(Oc2ccccc2)cc1,81 to 83 °C

row,SMILES,melting point
1,O=S(=O)(NCC(O)(Cn1cncn1)c1ccc(Cl)cc1Cl)c1ccc(C(F)(F)F)cc1 (stereo unspecified),165 to 166 °C
2,CC(CCCC(O)(C(F)(F)F)C(F)(F)F)C1CCC2C3C=CC4=CC(=O)C=CC4(C)C3CCC12C (stereo unspecified),166 to 168 °C
3,CC(C(O)=S)c1sc(S(N)(=O)=O)cc1[N+](=O)[O-] (stereo unspecified),154 to 155 °C
4,O=C(NC(Cc1c[nH]c2ccccc12)C(=O)CCc1cc(C(F)(F)F)cc(C(F)(F)F)c1)c1ccccc1 (stereo unspecified),119 to 122 °C
5,C#CCC1(O)CCN(c2ccc(N3C[C@H](CNC(C)=O)OC3=O)cc2F)CC1,166 to 167 °C
6,COc1cc(Nc2c(C#N)cnc3cc(-c4ccc(CN(C)C)cc4)ccc23)c(Cl)cc1Cl,187 to 189 °C
7,O=C(O)C(O)=CC(=O)c1c(Cc2ccccc2)[nH]c2ccccc12,165 to 167 °C
8,COc1cc2c(cc1CCNC(=O)Cc1ccccc1)CCC2,135 °C
9,O=C1CCC(=O)N1CC#CCN1CCCC1,93 to 94 °C
10,CCCCCCCCCCCCC1=C(OCC)C(=O)c2ccccc2C1=O,36 to 38 °C
11,CC(C)(CO)NS(=O)(=O)c1cccc(NC(=O)c2cnn3c(C(F)F)cc(-c4ccc(Cl)cc4)nc23)c1,229 °C
12,COc1cccc(C(=O)OC(=C2C(=O)N(C(N)=O)c3cc(Cl)c(F)cc32)c2cccs2)c1,196 to 220 °C
13,CCC(CC)n1cc(Cl)nc(N2CCc3cc(Br)cc(Cl)c32)c1=O,156 to 157 °C
14,CS(=O)(=O)N(C(=O)c1cc(Oc2ccc(C(F)(F)F)cc2Cl)ccc1[N+](=O)[O-])C(=O)c1cc(Oc2ccc(C(F)(F)F)cc2Cl)ccc1[N+](=O)[O-],166 to 168 °C
15,CC(C#N)c1ccc(O)cc1 (stereo unspecified),41 to 46 °C
16,CCOCN1C(C)=C(C(=O)O)[C@H](c2cccc([N+](=O)[O-])c2)C(C(=O)OCOC(=O)C(C)(C)C)=C1C,85 to 86 °C
17,c1ccc2c(c1)nc1snc(-c3cnccn3)n12,255 to 256 °C
18,O=C(OC(F)C(F)F)c1cnccn1 (stereo unspecified),46 to 48 °C
19,COc1nc(C)cnc1N(C(=O)OCC(C)C)S(=O)(=O)c1cccnc1-c1ccc(I)cc1,156 to 158 °C
20,NC(=O)c1c(Cl)c(-c2ccccc2)n2c1CN(C(=O)N1CCOCC1)CC2,219 to 220 °C
21,CCOC(C#CC(=NC(c1ccccc1)(c1ccccc1)c1ccccc1)C(F)F)OCC,173 to 175 °C
